One molecule from PMC12700101 (2025) can be followed below.

Experiment [1] relates to Dopamine DBS Cy3/BHQ-1 (P3) (DNA, aptamer) AAATACAACAAGAAAAAACTCTCGGGACGACGCCAGTTTGAAGGTTCGTTCGCAGGTGTGGAGTGACGTCGTCCC
In words: fluorescence melting. The settings on record: 1x PBS, 2 mM MgCl2; pH 8.0; 50 µM dopamine; derived from two Tm (50.3, 50.1); displacement strand 1:4.

The subject of experiment [2] is Dopamine DBS Cy3–BHQ-1 (Position 1/Adjacent) (DNA, aptamer) AAATACAACAAGAAAAAACTCTCGGGACGACGACCAGTTTGAAGGTTCGTTCGCAGGTGTGGAGTGACGTCGTCCC
The experiment can be described thus: fluorescence melting. To be noted: 1x PBS, 2 mM MgCl2; derived from two Tm (51.7 ± 0.1, 50.9 ± 0.1) of aptamer–displacement duplex; 50 µM dopamine, pH 8.0.

Experiment [3] relates to Dopamine DBS Cy3–IABkFQ (DNA, aptamer) AAATACAACAAGAAAAAACTCTCGGGACGACGACCAGTTTGAAGGTTCGTTCGCAGGTGTGGAGTGACGTCGTCCC
The experiment can be described thus: fluorescence strand-displacement titration. To be noted: 1x PBS, 2 mM MgCl2; apparent; pH 8.0, 25 °C; displaced 42-nt 5'-IABkFQ strand, 4 eq.

In experiment [4] the test system is Dopamine MAB Cy3–Dab (DNA, aptamer, dabcyl-5-methyl-dC at 41 (3' end)) ACGCCAGTTTGAAGGTTCGTTCGCAGGTGTGGAGTGACGTC
In words: fluorescence melting. To be noted: 1x PBS, 2 mM MgCl2; derived from two Tm (43.3 ± 1.0, 53.6 ± 0.3); 50 µM dopamine, pH 8.0.

Experiment [5] has as its system Dopamine DBS FAM(+T)–IABkFQ (DNA, aptamer, 6-FAM-dT (azide click) at 33) AAATACAACAAGAAAAAACTCTCGGGACGACGTACCAGTTTGAAGGTTCGTTCGCAGGTGTGGAGTGACGTCGTCCC
In words: fluorescence strand-displacement titration. The settings on record: 1x PBS, 2 mM MgCl2; apparent; pH 8.0, 25 °C; displaced 42-nt 5'-IABkFQ strand, 4 eq.

In experiment [6] the test system is Dopamine MAB Cy3–BHQ-1 (DNA, aptamer) ACGCCAGTTTGAAGGTTCGTTCGCAGGTGTGGAGTGACGT
In words: fluorescence quenching titration (molecular aptamer beacon). The settings on record: 1x PBS, 2 mM MgCl2; apparent; pH 8.0, 25 °C.

In experiment [7] the test system is Dopamine DBS FAM(+T)–BHQ-1 Internal (DNA, aptamer, 6-FAM-dT (azide click) at 33) AAATACAACAAGAAAAAACTCTCGGGACGACGTACCAGTTTGAAGGTTCGTTCGCAGGTGTGGAGTGACGTCGTCCC
In words: fluorescence strand-displacement titration. The settings on record: 1x PBS, 2 mM MgCl2; apparent; pH 8.0, 25 °C; displaced 42-nt strand, internal BHQ-1, 4 eq.

Experiment [8] has as its system Dopamine DBS Cy3–BHQ-1 (Term.) (DNA, aptamer) AAATACAACAAGAAAAAACTCTCGGGACGACGACCAGTTTGAAGGTTCGTTCGCAGGTGTGGAGTGACGTCGTCCC
In words: fluorescence strand-displacement titration. To be noted: 1x PBS, 2 mM MgCl2; apparent; pH 8.0, 25 °C; displaced 43-nt strand, 5'-BHQ-1 plus T, 4 eq.

Experiment [9] concerns Dopamine DBS BHQ-1/Cy3 (1:1) (DNA, aptamer) AAATACAACAAGAAAAAACTCTCGGGACGACGCCAGTTTGAAGGTTCGTTCGCAGGTGTGGAGTGACGTCGTCCC
The experiment can be described thus: fluorescence melting. To be noted: 1x PBS, 2 mM MgCl2; pH 8.0; 50 µM dopamine; derived from two Tm (51.0, 50.6); displacement strand 1:1.

Experiment [10] has as its system Dopamine DBS FAM(+T)/BHQ-1 (int.) (DNA, aptamer, 6-FAM-modified dT (click, i6-FAMK) at 33) AAATACAACAAGAAAAAACTCTCGGGACGACGTCCAGTTTGAAGGTTCGTTCGCAGGTGTGGAGTGACGTCGTCCC
The experiment can be described thus: fluorescence melting. The settings on record: 1x PBS, 2 mM MgCl2; pH 8.0; 50 µM dopamine; derived from two Tm (49.1, 49.3); displacement strand 1:4.

Experiment [11] relates to Dopamine MAB BHQ-1–FAM (DNA, aptamer) ACGCCAGTTTGAAGGTTCGTTCGCAGGTGTGGAGTGACGT
In words: fluorescence quenching titration (molecular aptamer beacon). The settings on record: 1x PBS, 2 mM MgCl2; apparent; pH 8.0, 25 °C.

For experiment [12], the system named is Dopamine MAB FAM–BHQ-1 (DNA, aptamer) ACGCCAGTTTGAAGGTTCGTTCGCAGGTGTGGAGTGACGT
Described as above. The settings on record: 1x PBS, 2 mM MgCl2; apparent; pH 8.0, 25 °C.

The subject of experiment [13] is Dopamine DBS Cy3–BHQ-1 (Position 1/Adjacent) (DNA, aptamer) AAATACAACAAGAAAAAACTCTCGGGACGACGACCAGTTTGAAGGTTCGTTCGCAGGTGTGGAGTGACGTCGTCCC
The experiment can be described thus: fluorescence strand-displacement titration. To be noted: 1x PBS, 2 mM MgCl2; apparent; pH 8.0, 25 °C; displaced CGTCGTCCCCTCTTCACATATCTATTTTTTCTTGTTGTATTT, 4 eq, 5'-BHQ-1.

Experiment [14] deals with Dopamine DBS Cy3/BHQ-1 (term.) (DNA, aptamer) AAATACAACAAGAAAAAACTCTCGGGACGACGCCAGTTTGAAGGTTCGTTCGCAGGTGTGGAGTGACGTCGTCCC
In words: fluorescence melting. To be noted: 1x PBS, 2 mM MgCl2; pH 8.0; 50 µM dopamine; derived from two Tm (51.2, 50.6); displacement strand 1:4.

Experiment [15] deals with Dopamine MAB Cy3–BHQ-2 (DNA, aptamer) ACGCCAGTTTGAAGGTTCGTTCGCAGGTGTGGAGTGACGT
In words: fluorescence quenching titration (molecular aptamer beacon). The settings on record: 1x PBS, 2 mM MgCl2; apparent; pH 8.0, 25 °C.

In experiment [16] the test system is Dopamine DBS Cy3(+T)/BHQ-1 (DNA, aptamer) AAATACAACAAGAAAAAACTCTCGGGACGACGTCCAGTTTGAAGGTTCGTTCGCAGGTGTGGAGTGACGTCGTCCC
In words: fluorescence melting. The settings on record: 1x PBS, 2 mM MgCl2; pH 8.0; 50 µM dopamine; derived from two Tm (51.6, 50.9); displacement strand 1:4.

In the case of `NCCc1ccc(O)c(O)c1`, the Tm was -0.2 °C in experiment [1]; -0.8 °C in experiment [2]; 10.3 °C in experiment [4]; -0.4 °C in [9]; 0.2 °C in experiment [10]; -0.6 °C in [14]. Besides, the Tm in experiment [16] was -0.7 °C. The Kd was found to be 85.0 ± 15.6 µM in experiment [3]; 19.6 ± 0.9 µM in experiment [5]; 53.8 ± 8.8 µM in [6]; 7.5 ± 0.9 µM in [7]; 142.9 ± 11.7 µM in experiment [8]; 5.3 ± 0.8 µM in [11]. The results for the Kd in [12], in experiment [13] and in experiment [15] were 3.0 ± 0.1 µM, 229.9 ± 22.0 µM and 12.4 ± 2.0 µM, respectively.
